# How the values were obtained:
# COCKLEBUR = assay: Test D; assay type: in vivo, Xanthium pensylvanicum
# JOHNSONGRASS = assay: Test D; assay type: in vivo, Sorghum halepense
# G4646 CORN = assay: Test D Corn and Sorghum Herbicide Test; assay type: in vivo, Zea mays
# REDROOT PIGWEED = assay: Test D; assay type: in vivo, Amaranthus retroflexus
# BARNYARDGRASS = assay: Test D; assay type: in vivo, Echinochloa crus-galli
# Experimental: The Corn and Sorghum Herbicide Test included the following species in both the preemergence and postemergence evaluations:
# Postemergence plantings were grown in Sassafras sandy loam soil. Corn and soybeans were grown in separate 25 cm diameter containers. Sorghum and the seven grass weed species were grown in two 18 cm diameter containers, 4 species per container. The seven broadleaf weed species were also grown in two 18 cm diameter containers, 4 species in one container, 3 species in the second container. One additional planting of corn in an 18 cm diameter container was made. The soil surface of this additional container of corn was covered with the absorbent, perlite, before spray treatment so that test chemicals would enter the plant only via the foliage. The plants were grown 10-21 days, dependent upon the species and then sprayed postemergence with the test chemicals dissolved in a nonpytotoxic solvent.
# Preemergence plantings were grown in fertilized Tama silt loam soil. These plantings are identical to those described in the postemergence section, with the exception of the corn planting having perlite covering the soil surface. These plantings were made the day of or the day before spraying the test chemicals dissolved in a nonphytotoxic solvent.
# Treated plants and controls were maintained in the greenhouse for 2 to 4 weeks. Visual planting response ratings were made on a percentage scale of 0 to 100 in comparison with a control where 0=no injury, and 100=death.
# LARGE CRABGRASS = assay: Test D; assay type: in vivo, Digitaria sanguinalis
# LAMBSQUARTER = assay: Test D; assay type: in vivo, Chenopodium album
# JIMSONWEED = assay: Test D; assay type: in vivo, Datura stramonium
compound,measurement,setting,value
C=C(c1ccccc1Cl)C(O)(Cn1cncn1)c1ccc(F)cc1F (stereo not drawn) [Example 35],plant response,COCKLEBUR; POSTEMERGENCE 0250 GM/HA,0%
same,plant response,COCKLEBUR; POSTEMERGENCE 0500 GM/HA,30%
same,plant response,COCKLEBUR; PREEMERGENCE 0064 GM/HA,0%
same,plant response,COCKLEBUR; PREEMERGENCE 0125 GM/HA,0%
same,plant response,COCKLEBUR; PREEMERGENCE 0250 GM/HA,0%
same,plant response,COCKLEBUR; PREEMERGENCE 0500 GM/HA,20%
same,plant response,JOHNSONGRASS; POSTEMERGENCE 0250 GM/HA,0%
same,plant response,JOHNSONGRASS; POSTEMERGENCE 0500 GM/HA,50%
same,plant response,JOHNSONGRASS; PREEMERGENCE 0064 GM/HA,30%
same,plant response,JOHNSONGRASS; PREEMERGENCE 0125 GM/HA,30%
same,plant response,JOHNSONGRASS; PREEMERGENCE 0250 GM/HA,100%
same,plant response,JOHNSONGRASS; PREEMERGENCE 0500 GM/HA,100%
same,plant response,G4646 CORN; POSTEMERGENCE 0250 GM/HA,0%
same,plant response,G4646 CORN; POSTEMERGENCE 0500 GM/HA,0%
same,plant response,G4646 CORN; PREEMERGENCE 0064 GM/HA,0%
same,plant response,G4646 CORN; PREEMERGENCE 0125 GM/HA,0%
same,plant response,G4646 CORN; PREEMERGENCE 0250 GM/HA,0%
same,plant response,G4646 CORN; PREEMERGENCE 0500 GM/HA,0%
same,plant response,REDROOT PIGWEED; POSTEMERGENCE 0250 GM/HA,30%
same,plant response,REDROOT PIGWEED; POSTEMERGENCE 0500 GM/HA,70%
same,plant response,REDROOT PIGWEED; PREEMERGENCE 0064 GM/HA,0%
same,plant response,REDROOT PIGWEED; PREEMERGENCE 0125 GM/HA,0%
same,plant response,REDROOT PIGWEED; PREEMERGENCE 0250 GM/HA,50%
same,plant response,REDROOT PIGWEED; PREEMERGENCE 0500 GM/HA,98%
same,plant response,BARNYARDGRASS; POSTEMERGENCE 0250 GM/HA,40%
same,plant response,BARNYARDGRASS; POSTEMERGENCE 0500 GM/HA,60%
same,plant response,BARNYARDGRASS; PREEMERGENCE 0064 GM/HA,0%
same,plant response,BARNYARDGRASS; PREEMERGENCE 0125 GM/HA,60%
same,plant response,BARNYARDGRASS; PREEMERGENCE 0250 GM/HA,40%
same,plant response,BARNYARDGRASS; PREEMERGENCE 0500 GM/HA,100%
same,plant response,LARGE CRABGRASS; POSTEMERGENCE 0250 GM/HA,30%
same,plant response,LARGE CRABGRASS; POSTEMERGENCE 0500 GM/HA,30%
same,plant response,LARGE CRABGRASS; PREEMERGENCE 0064 GM/HA,50%
same,plant response,LARGE CRABGRASS; PREEMERGENCE 0125 GM/HA,70%
same,plant response,LARGE CRABGRASS; PREEMERGENCE 0250 GM/HA,95%
same,plant response,LARGE CRABGRASS; PREEMERGENCE 0500 GM/HA,100%
same,plant response,LAMBSQUARTER; POSTEMERGENCE 0250 GM/HA,0%
same,plant response,LAMBSQUARTER; POSTEMERGENCE 0500 GM/HA,20%
same,plant response,LAMBSQUARTER; PREEMERGENCE 0064 GM/HA,30%
same,plant response,LAMBSQUARTER; PREEMERGENCE 0125 GM/HA,30%
same,plant response,LAMBSQUARTER; PREEMERGENCE 0250 GM/HA,60%
same,plant response,LAMBSQUARTER; PREEMERGENCE 0500 GM/HA,80%
same,plant response,JIMSONWEED; POSTEMERGENCE 0250 GM/HA,20%
same,plant response,JIMSONWEED; POSTEMERGENCE 0500 GM/HA,20%
same,plant response,JIMSONWEED; PREEMERGENCE 0064 GM/HA,0%
same,plant response,JIMSONWEED; PREEMERGENCE 0125 GM/HA,0%
same,plant response,JIMSONWEED; PREEMERGENCE 0250 GM/HA,80%
same,plant response,JIMSONWEED; PREEMERGENCE 0500 GM/HA,30%
"C=C(c1ccccc1)C(O)(Cn1cncn1)c1ccc(Cl)cc1Cl (stereo not drawn) [Example 50, 2-(2,4-Dichlorophenyl)-3-phenyl-1-(1H-1,2,4-triazol-1-yl)-3-buten-2-ol]",plant response,COCKLEBUR; POSTEMERGENCE 0250 GM/HA,25%
same,plant response,COCKLEBUR; POSTEMERGENCE 0500 GM/HA,40%
same,plant response,COCKLEBUR; PREEMERGENCE 0064 GM/HA,0%
same,plant response,COCKLEBUR; PREEMERGENCE 0125 GM/HA,0%
same,plant response,COCKLEBUR; PREEMERGENCE 0250 GM/HA,0%
same,plant response,COCKLEBUR; PREEMERGENCE 0500 GM/HA,25%
same,plant response,JOHNSONGRASS; POSTEMERGENCE 0250 GM/HA,20%
same,plant response,JOHNSONGRASS; POSTEMERGENCE 0500 GM/HA,40%
same,plant response,JOHNSONGRASS; PREEMERGENCE 0064 GM/HA,35%
same,plant response,JOHNSONGRASS; PREEMERGENCE 0125 GM/HA,70%
same,plant response,JOHNSONGRASS; PREEMERGENCE 0250 GM/HA,90%
same,plant response,JOHNSONGRASS; PREEMERGENCE 0500 GM/HA,95%
same,plant response,G4646 CORN; POSTEMERGENCE 0250 GM/HA,0%
same,plant response,G4646 CORN; POSTEMERGENCE 0500 GM/HA,20%
same,plant response,G4646 CORN; PREEMERGENCE 0064 GM/HA,0%
same,plant response,G4646 CORN; PREEMERGENCE 0125 GM/HA,0%
same,plant response,G4646 CORN; PREEMERGENCE 0250 GM/HA,0%
same,plant response,G4646 CORN; PREEMERGENCE 0500 GM/HA,0%
same,plant response,REDROOT PIGWEED; POSTEMERGENCE 0250 GM/HA,65%
same,plant response,REDROOT PIGWEED; POSTEMERGENCE 0500 GM/HA,95%
same,plant response,REDROOT PIGWEED; PREEMERGENCE 0064 GM/HA,0%
same,plant response,REDROOT PIGWEED; PREEMERGENCE 0125 GM/HA,40%
same,plant response,REDROOT PIGWEED; PREEMERGENCE 0250 GM/HA,85%
same,plant response,REDROOT PIGWEED; PREEMERGENCE 0500 GM/HA,100%
same,plant response,BARNYARDGRASS; POSTEMERGENCE 0250 GM/HA,0%
same,plant response,BARNYARDGRASS; POSTEMERGENCE 0500 GM/HA,0%
same,plant response,BARNYARDGRASS; PREEMERGENCE 0064 GM/HA,0%
same,plant response,BARNYARDGRASS; PREEMERGENCE 0125 GM/HA,0%
same,plant response,BARNYARDGRASS; PREEMERGENCE 0250 GM/HA,20%
same,plant response,BARNYARDGRASS; PREEMERGENCE 0500 GM/HA,45%
same,plant response,LARGE CRABGRASS; POSTEMERGENCE 0250 GM/HA,70%
same,plant response,LARGE CRABGRASS; POSTEMERGENCE 0500 GM/HA,100%
same,plant response,LARGE CRABGRASS; PREEMERGENCE 0064 GM/HA,40%
same,plant response,LARGE CRABGRASS; PREEMERGENCE 0125 GM/HA,75%
same,plant response,LARGE CRABGRASS; PREEMERGENCE 0250 GM/HA,100%
same,plant response,LARGE CRABGRASS; PREEMERGENCE 0500 GM/HA,100%
same,plant response,LAMBSQUARTER; POSTEMERGENCE 0250 GM/HA,65%
same,plant response,LAMBSQUARTER; POSTEMERGENCE 0500 GM/HA,80%
same,plant response,LAMBSQUARTER; PREEMERGENCE 0064 GM/HA,0%
same,plant response,LAMBSQUARTER; PREEMERGENCE 0125 GM/HA,35%
same,plant response,LAMBSQUARTER; PREEMERGENCE 0250 GM/HA,75%
same,plant response,LAMBSQUARTER; PREEMERGENCE 0500 GM/HA,90%
same,plant response,JIMSONWEED; POSTEMERGENCE 0250 GM/HA,20%
same,plant response,JIMSONWEED; POSTEMERGENCE 0500 GM/HA,45%
same,plant response,JIMSONWEED; PREEMERGENCE 0064 GM/HA,0%
same,plant response,JIMSONWEED; PREEMERGENCE 0125 GM/HA,25%
same,plant response,JIMSONWEED; PREEMERGENCE 0250 GM/HA,50%
same,plant response,JIMSONWEED; PREEMERGENCE 0500 GM/HA,70%

# Source: patent US4965280A, “Antifungal carbinols” (E. I. Du Pont de Nemours and Company, priority 1989, dated 1990)
